Read-outs that look alike come from different tables or passages of the source.
Columns and labels:
forearm skin = conditions: 5% solution with L-arginine; for increase in skin thickness: forearm
Description: The combined thickness of two whole-skin layers including thickness of the two hinge leaves was measured with micrometer calipers. The thickness of the two hinge leaves was subtracted to determine the actual thickness of two whole-skin layers. Triplicate measurements on treated sites were done and an average number was used for calculation of the skin thickness.
The solution thus prepared contained 5% non-amphoteric glutathione derivative. For comparative study, glutathione 5 g and L-arginine 1 g were dissolved in 94 ml solution prepared from water 70 parts and propylene glycol 30 parts. The solution thus prepared contained 5% amphoteric glutathione.
A subject, applied topically twice daily the above 5% amphoteric glutathione solution to their left forearm and 5% non-amphoteric glutathione derivative to their right forearm for four weeks.
A solution containing a non-amphoteric glutathione derivative was prepared. […] The solution thus prepared contained 5% non-amphoteric glutathione derivative.
A subject, applied topically twice daily the above 5% non-amphoteric glutathione derivative to their right forearm for eight weeks.
A subject, applied topically twice daily the above 5% non-amphoteric glutathione derivative to their left forearm for eight weeks.

[1] = test system: X-linked ichthyosis with severe dry skin; conditions: 3% cream under test chambers on forearm, subject
Description: A solution containing a non-amphoteric glutathione derivative was prepared. N-Acetyl-glutathione diethyl ester 3 g was dissolved in warm propylene glycol 17 ml, and the solution was mixed with 80 g oil-in-water cream base or hydrophilic ointment. The cream contained 3% non-amphoteric N-acetyl-glutathione diethyl ester.
A subject who had X-linked ichthyosis with severe dry skin participated in this study. Test spots were I cm square sites on extensor surface of forearm, a grid pattern formed by Hayes Test Chambers on Hayes adhesive strips. Each test chamber contained a square piece of filter paper which was fully saturated with the non-amphoteric glutathione derivative cream. Test chambers were impressed on the skin to leave outlines which were marked with SANFORD® SHARPIE® permanent marker. Sites were re-marked at each successive application of the test cream. Chambers were removed twice weekly, and replaced with a new adhesive strip of chambers with filter paper saturated with the test cream. The test was carried out for two weeks.

chronic nummular eczema = conditions: 10% cream of Preparation Example 2, topically twice daily for two days, subject, right lower leg
Description: A solution containing a non-amphoteric glutathione derivative was prepared. […] The solution was mixed uniformly with 70 g cream base.

[2] = topically twice daily for four weeks, subject

| SMILES | increase in skin thickness (forearm skin; [2]) | appearance of treated forearm skin (forearm skin; [2]) | clinical evaluation, improvement of rough and scaly skin ([1]; after one week) | appearance of severe dry skin ([1]; after two weeks) | areas of the eczematous lesions reduced (chronic nummular eczema) | appearance of treated forearm skin (forearm skin; topically twice daily for eight weeks, one subject per example) |
| --- | --- | --- | --- | --- | --- | --- |
| N[C@@H](CCC(=O)N[C@@H](CS)C(=O)NCC(=O)O)C(=O)O [glutathione] | no change | still loose, relatively thin and wrinkled when lifted | – | – | – | – |
| CCOC(=O)CNC(=O)[C@H](CS)NC(=O)CC[C@H](NC(C)=O)C(=O)OCC [N-acetyl-glutathione diethyl ester, N-Acetyl-glutathione diethyl ester] | – | – | 90% | smooth and normal-looking | – | – |
| COC(=O)CNC(=O)[C@H](CS)NC(=O)CC[C@H](N)C(=O)OC.Cl [glutathione dimethyl ester, Glutathione dimethyl ester hydrochloride] | 10% | more firm, smooth, plump and minimally wrinkled when lifted | – | – | 75% | more firm, smooth, plump and minimally wrinkled when lifted |
